Experimental data from patent publication US12180208B1, “Pyrazolo[1,5-c]pyrido[3,4-e]pyrimidines as CK2 inhibitors” (KING FAISAL UNIVERSITY, priority 2024, dated 2024).

Assays:
H1299 (lung) = experiment: In vitro cytotoxic activity (MTT) assay, H1299; type: cell-based; conditions: Homo sapiens, NCI-H1299, 96 hours exposure, read-out: Cytotoxicity activity IC50 (50% inhibition of cell proliferation)
Protocol: (§1) Compounds 1-16 were screened for their in vitro cytotoxic activity utilizing a 3-(4,5-dimethyl-thiazol-2-yl)-2,5-diphenyltetrazolium bromide (MTT) assay against selected cancer human cell lines consisting of PC3 (prostate), HCT116 (colon), A375 (melanoma), H1299 (lung), MIAPaCa-2 (pancreas), HL60 (leukemia), MCF7 (breast), MDA-MB-231 (breast) (T. Mosmann, J. Immunol. Meth., 1983, 65, 55-63). The cells were cultured at 37° C. in RMPI1640 medium supplemented with 10% fetal bovine serum, 50 IU/mL penicillin, and 50 μg/mL streptomycin in a 5% CO2 incubator. All cells were sub-cultured 3 times/week by trypsinisation. Viable cells were seeded and allowed to adhere for 12 hours before a test drug was added in 96-well plates at an initial density of 1.0×10^5 cells/mL. Tumor cell lines were separately exposed to various concentrations of the tested compounds followed by incubation at a temperature of 37° C. during 96 hours inside a medium of fresh RMPI 1640. Cells were subsequently incubated at 37° C. using MTT at 0.5 mg/mL during 4 hours. After removal of supernatant, formazan crystals were dissolved in isopropanol and the optical density was measured at 570 nm. CX-4945 was used as a positive control.

MIAPaCa-2 (pancreas) = experiment: In vitro cytotoxic activity (MTT) assay, MIAPaCa-2; type: cell-based; conditions: Homo sapiens, MIA PaCa-2, 96 hours exposure, read-out: Cytotoxicity activity IC50 (50% inhibition of cell proliferation)
Protocol: as §1

[1] = target: T1, recombinant human CK2 (holoenzyme) (Homo sapiens, UniProt P68400); experiment: CK2 Kinase Assay (33P-ATP, filter plate); type: biochemical; conditions: final ATP concentration 15 μM, 10 min at 30° C.; read-out: protein kinase CK2 IC50
T1 construct: purchased Millipore
Protocol: CK2 Kinase Assay was conducted using the protocol as described in Pierre F. et al; J. Med. Chem. 2011, 54, 635-654. The tested compounds in aqueous solution were added at a volume of 10 μL to a reaction mixture comprising 10 μL of assay dilution buffer (ADB; 20 mM MOPS, pH 7.2, 25 mM β-glycerol phosphate, 5 mM EGTA, 1 mM sodium orthovanadate, and 1 mM dithiothreitol), 10 μL of substrate peptide (RRRDDDSDDD, dissolved in ADB at a concentration of 1 mM), 10 μL of recombinant human CK2 (RRββ-holoenzyme, 25 ng dissolved in ADB; Millipore). Reactions were initiated by the addition of 10 μL of ATP solution (90% 75 mMMgCl2, 75 μM ATP (final ATP concentration: 15 μM) dissolved in ADB; 10% [γ-33P] ATP (stock 1 mCi/100 μL; 3000 Ci/mmol (Perkin-Elmer) and maintained for 10 min at 30° C. The reactions were quenched with 100 μL of 0.75% phosphoric acid and then transferred to and filtered through a phosphor cellulose filter plate (Millipore). After washing each well five times with 0.75% phosphoric acid, the plate was dried under vacuum for 5 min and, following the addition of 15 μL of scintillation fluid to each well, the residual radioactivity was measured using a Wallac […] counter. The IC50 values were derived from eight concentrations of test inhibitors.

MCF7 (breast) = experiment: In vitro cytotoxic activity (MTT) assay, MCF7; type: cell-based; conditions: Homo sapiens, 96 hours exposure, read-out: Cytotoxicity activity IC50 (50% inhibition of cell proliferation)
Protocol: as §1

PC3 (prostate) = experiment: In vitro cytotoxic activity (MTT) assay, PC3; type: cell-based; conditions: Homo sapiens, 96 hours exposure, read-out: Cytotoxicity activity IC50 (50% inhibition of cell proliferation)
Protocol: as §1

MDA-MB-231 (breast) = experiment: In vitro cytotoxic activity (MTT) assay, MDA-MB-231; type: cell-based; conditions: Homo sapiens, 96 hours exposure, read-out: Cytotoxicity activity IC50 (50% inhibition of cell proliferation)
Protocol: as §1

A375 (melanoma) = experiment: In vitro cytotoxic activity (MTT) assay, A375; type: cell-based; conditions: Homo sapiens, A-375, 96 hours exposure, read-out: Cytotoxicity activity IC50 (50% inhibition of cell proliferation)
Protocol: as §1

HCT116 (colon) = experiment: In vitro cytotoxic activity (MTT) assay, HCT116; type: cell-based; conditions: Homo sapiens, HCT-116, 96 hours exposure, read-out: Cytotoxicity activity IC50 (50% inhibition of cell proliferation)
Protocol: as §1

HL60 (leukemia) = experiment: In vitro cytotoxic activity (MTT) assay, HL60; type: cell-based; conditions: Homo sapiens, HL-60, 96 hours exposure, read-out: Cytotoxicity activity IC50 (50% inhibition of cell proliferation)
Protocol: as §1

T1 sequence (P68400 whole entry): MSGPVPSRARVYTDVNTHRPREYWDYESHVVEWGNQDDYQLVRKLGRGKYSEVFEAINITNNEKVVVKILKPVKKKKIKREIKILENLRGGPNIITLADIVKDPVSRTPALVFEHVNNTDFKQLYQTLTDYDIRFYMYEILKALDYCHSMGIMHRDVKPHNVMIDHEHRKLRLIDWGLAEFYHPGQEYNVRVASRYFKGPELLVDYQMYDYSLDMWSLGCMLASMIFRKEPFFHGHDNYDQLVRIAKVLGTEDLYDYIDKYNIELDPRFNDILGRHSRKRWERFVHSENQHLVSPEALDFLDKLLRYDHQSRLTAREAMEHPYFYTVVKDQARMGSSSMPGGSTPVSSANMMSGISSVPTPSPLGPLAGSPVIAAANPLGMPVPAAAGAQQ
T1 sequence (P67870 whole entry partner): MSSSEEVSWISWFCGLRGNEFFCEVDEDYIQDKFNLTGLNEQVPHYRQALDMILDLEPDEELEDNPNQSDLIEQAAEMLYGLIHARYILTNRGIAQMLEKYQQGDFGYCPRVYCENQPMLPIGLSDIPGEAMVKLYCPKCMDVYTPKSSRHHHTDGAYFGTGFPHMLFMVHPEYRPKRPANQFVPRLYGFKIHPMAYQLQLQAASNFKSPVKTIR

For `O=C(O)c1cc2c3cnccc3nc(Nc3cccc(Cl)c3)n2n1` [Compound 1, 6-((3-chlorophenyl)amino)pyrazolo[1,5-c]pyrido[3,4-e]pyrimidine-9-carboxylic Acid], the IC50 (H1299 (lung)) was 2.5 µM, the IC50 (MIAPaCa-2 (pancreas)) was 1.7 µM and the IC50 [1] was 0.055 µM. For the same compound, the IC50 (MCF7 (breast)) was 5.6 µM, the IC50 (PC3 (prostate)) was 2.3 µM and the IC50 (MDA-MB-231 (breast)) was 4.9 µM. For the same compound, the IC50 (A375 (melanoma)) was 4.2 µM, the IC50 (HCT116 (colon)) was 3.1 µM and the IC50 (HL60 (leukemia)) was 5.1 µM.
